Test results: EP2401611B1, “IMPROVED METHODS FOR IDENTIFICATION” (Cambridge Enterprise Limited, priority 2009, dated 2010)
Where two headings read alike, the source gives them in different places.

Key:
[1] = tested on: THP-1 cells; experiment: MCP-1 induced THP-1 cell migration (Transwell) assay; type: cell-based, human
Method: Leukocyte migration was measured using the 96-well format micro Transwell^RTM assay system from Neuroprobe (Gaithersburg, MD, USA). In principle, this assay consists of two chambers separated by a porous membrane. The chemoattractant is placed in the lower compartment and the cells are placed in the upper compartment. After incubation for a period at 37°C the cells move towards the chemoattractant, and the number of cells in the lower compartment is proportional to the chemoattractant activity (relative to a series of controls).
(§1) The method was performed essentially as previously described (Reckless & Grainger (1999) Biochem. J. 340:803-11).
First, the cell suspension to be placed in the upper compartment was prepared. The THP-1 cells were pelleted by centrifugation (770 x g; 4 mins) and washed with Geys Balanced Salt Solution with 1mg/ml BSA (GBSS + BSA). This wash was then repeated, and the cells re-pelleted before being resuspended in a small volume of GBSS + BSA for counting, for example using a standard haemocytometer.
The volume of GBSS + BSA was then adjusted depending on the number of cells present so that the cells were at final density of 4.45 x 10^6 cells per ml of GBSS + BSA. This ensured that there were 100,000 THP-1 cells in each 25µl of the solution to be placed in the upper chamber of the plate.
The suspension of THP-1 cells at 4.45 x 10^6 cells/ml was divided into three pots. To one pot the BSCI was added at an appropriate final concentration, in an appropriate vehicle (for example (S)- 3-(2',2'-dimethylpropanoylamino)-tetrahydropyridin-2-one was added at 1nM from a stock solution in GBSS). To the second pot, the BSCI was added at the same concentration as in the first pot, but additionally the sstr2 antagonist was also added (for example BIM 23454 [Tulipano et al. (2002) 143:1218-24] or BIM 23627 were added at 66nM final concentration from a stock solution in GBSS). To the third pot, GBSS + BSA plus vehicle as appropriate was added so that the volumes in three pots are equal, acting as a control.
Next, the chemoattractant solution to be placed in the lower compartment was prepared. […]. Note that, as recommended by Frow et al (Med. Res. Rev. 24:276-98) this is the concentration of MCP-1 which induces maximal migration in this system. This solution was divided into three pots, as for the cell suspension. To one pot, the BSCI was added to the same final concentration as was added to the cell suspension, in the second pot the BSCI and the sstr2 antagonist were both added at the same concentration as previously added to the cell suspension, while to the remaining pot GBSS + BSA plus vehicle as appropriate was added so that the volumes in the three pots were equal. Note that the volume of liquid that needs to be added to make the addition of the BSCI and the sstr2 antagonist compounds needs to be taken into account, when establishing the final concentration of MCP-1 in the solution for the lower compartment and the final concentration of cells in the upper compartment.
(§2) Once the chemoattractant solutions for the lower wells and cell solutions for the upper chambers were prepared, the migration chamber was assembled. 29 µl of the appropriate chemoattractant solution was placed into the lower well of the chamber. Assays were performed with at least triplicate determinations of each condition. Once all the lower chambers were filled, the porous membrane was applied to the chamber in accordance with the manufacturer's instructions. Finally, 25 µl of the appropriate cell solution was applied to each upper chamber. A plastic lid was placed over the entire apparatus to prevent evaporation.
The assembled chamber was incubated at 37 °C, 5% CO2, for 2 hours. A suspension of cells in GBSS + BSA was also incubated under identical conditions in a tube: these cells were used to construct a standard curve for determining the number of cells that migrated to the lower chamber under each condition. […]

[2] = tested on: Panc-2H4; experiment: Human Panc-2H4 insulin suppression assay; type: cell-based
Text: (§3) Two different assays for "classical" sstr2 functions were adopted: (1) cultured foetal rat pituitary cells secreted growth hormone which is inhibited by sstr2 agonists in a dose-dependent fashion and (2) selected glucose-sensitive sub-clones of the human Panc-1 cell line secrete insulin which is inhibited by sstr2 agonists in a dose-dependent fashion.
Glucose-sensitive sub-clones of the human Panc-1, a cell line derived from a pleiomorphic epithelioid carcinoma of the exocrine pancreas, were obtained essentially as described by Hamil et al. (2008) Biomed. Sci. Instrum. 44:441-6. Briefly, Panc-1 cells were subcultured in 24 well plates, and the medium was supplemented with an additional 5% glucose. […] The resulting sub-lines were then tested for glucose sensitivity by preparing wells of a 96-well plate (5 x 10^4 cells per well) which were then exposed to cultured medium containing a range of glucose concentrations (low glucose DMEM, DMEM, DMEM + 1% glucose, DMEM ± 2.5% glucose and DMEM + 5% glucose). After 24hrs incubation, the conditioned medium was collected and assayed for insulin secretion by ELISA (Linco; cat# EZHI-14K) in accordance with the manufacturer's instructions. […] Further 96 well plates were prepared using Panc-2H4 (5 x 10^4 cells per well) in DMEM. After 24hrs, the medium was switched to DMEM + 5% glucose containing various test agents at various concentrations (triplicate wells per condition). After a further 24hrs, the conditioned medium was harvested and the concentration of insulin was determined by ELISA as described above.
(§4) Results were reported as the mean ± SD, expressed as the fold change from cells in the presence of vehicle only.

[3] = tested on: fetal rat pituicytes; experiment: Rat pituicyte GH suppression assay; type: cell-based
Text: as §3
Methods: Cultures of fetal rat pituicytes were established exactly as previously described (Murray et al. (2004) J. Clin. Endocrinol. Metab. 89:3027-32) by enzymatic dispersion. After 48hrs in low glucose DMEM plus 10% FCS, cells in 48 well plates (5 x 10^4 cells per well) were washed for 4hrs in serum-free DMEM and then incubated with test agents at various concentrations for a further 24hrs in serum-free DMEM. At the end of this period, the conditioned medium was harvested, any cell debris removed by centrifugation and assayed for GH using a commercially available ELISA (Linco; cat# EZRMGH-45K) in accordance with the manufacturer's instructions.
as §4

[4] = tested on: THP-1 cells; experiment: MCP-1 induced THP-1 cell migration (Transwell) assay; type: cell-based, human; remark: listed apart in the source
Method: In principle, this assay consists of two chambers separated by a porous membrane. The chemoattractant is placed in the lower compartment and the cells are placed in the upper compartment.
as §1
First, the cell suspension to be placed in the upper compartment was prepared.
Next, the chemoattractant solution to be placed in the lower compartment was prepared. […] Note that, as recommended by Frow et al (Med. Res. Rev. 24:276-98) this is the concentration of MCP-1 which induces maximal migration in this system. This solution was divided into three pots, as for the cell suspension.
as §2, with “29 µl of the appropriate chemoattractant solution was placed into the lower well of the chamber.” left out, “Finally, 25 µl of the appropriate cell solution was applied to each upper chamber.” left out
This procedure caused any cells adhering to the underside of the membrane to fall into the lower chamber.
The number of cells migrated into the lower chamber under each condition can then be determined by a number of methods, including direct counting, labelling with fluorescent or radioactive markers or through the use of a vital dye. Typically, we utilised the vital dye MTT.

[5] = target: type 2 somatostatin receptor (sstr2), human (human) (UniProt P30874); experiment: cell-based or functional assay
[6] = Table 4, 0.01nM to 1,000nM in DMSO vehicle, read-out: Chemokine-induced THP-1 cell migration assay ("BSCI" target) ED50
[7] = Table 4, 0.01nM to 1,000nM in DMSO vehicle, read-out: Panc-2H4 insulin suppression assay ("classical" target) ED50
[8] = Table 3, percentage suppression compared to vehicle

Q: Which “Chemokine-induced THP-1 cell migration assay ("BSCI" target) Max Effect (%)” value ([1]; Table 4) does the source give for `CC(=O)NC(=O)C(NC(=O)N1CCC(n2c(=O)[nH]c3ccccc32)CC1)C(C)c1c[nH]c2ccccc12` (stereo not shown) [Compound E] here?
A: <10%

Q: What about the EC50 [1, 6] of the same compound?
A: > 1000 nM

Q: And the “Panc-2H4 insulin suppression assay ("classical" target) Max Effect (%)” value ([2]; Table 4)?
A: <10%

Q: And the EC50 [2, 7]?
A: > 1000 nM

Q: For `NCC1CCCC(CNC(=O)C(Cc2ccccc2)NC(=O)N2CCC(n3c(=O)[nH]c4ccccc43)CC2)C1` (stereo not shown) [F], which “Chemokine-induced THP-1 cell migration assay ("BSCI" target) Max Effect (%)” value ([1]; Table 4) is on record?
A: <10%

Q: And the EC50 [1, 6]?
A: > 1000 nM

Q: What about the “Panc-2H4 insulin suppression assay ("classical" target) Max Effect (%)” value ([2]; Table 4) of the same compound?
A: <10%

Q: What about the EC50 [2, 7] of the same compound?
A: > 1000 nM

Q: Which “Rat pituicyte GH suppression assay Max effect (%)” value [3, 8] does the source give for `C[C@@H](c1c[nH]c2ccccc12)[C@@H](NC(=O)N1CCC(n2c(=O)[nH]c3ccccc32)CC1)C(=O)NC[C@@H]1CCC[C@H](CN)C1` [L-779,976] here?
A: 55%

Q: And the EC50 ([3]; Table 3, read-out: Rat pituicyte GH suppression assay ED50)?
A: 2.9 nM

Q: What about the “Human chemokine-induced THP-1 migration assay Max effect (%)” value ([1]; Table 3) of the same compound?
A: 65%

Q: And the “"Classical" : "BSCI" potency ratio Human” value ([1]; Table 3, THP-1 migration ED50 versus Panc-2H4 insulin suppression ED50)?
A: 27

Q: What about the EC50 ([1]; Table 3, read-out: Human chemokine-induced THP-1 migration assay ED50) of the same compound?
A: 450 nM

Q: And the “Chemokine-induced THP-1 cell migration assay ("BSCI" target) Max Effect (%)” value ([1]; Table 4)?
A: 65%

Q: And the EC50 [1, 6]?
A: 450 nM

Q: And the RATIO ([1]; Table 4, THP-1 migration ED50 versus insulin suppression ED50)?
A: 26.5

Q: And the “Chemokine-induced THP-1 cell migration assay ("BSCI" target) Max Effect (%)” value ([1]; Table 5)?
A: 65%

Q: What about the RATIO ([1]; Table 5, THP-1 migration ED50 versus insulin suppression ED50) of the same compound?
A: 26.5

Q: And the EC50 ([1]; Table 5, library screening hits, read-out: Chemokine-induced THP-1 cell migration assay ("BSCI" target) ED50)?
A: 450 nM

Q: And the “Human Panc-2H4 insulin suppression assay Max effect (%)” value [2, 8]?
A: 40%

Q: And the EC50 ([2]; Table 3, read-out: Human Panc-2H4 insulin suppression assay ED50)?
A: 17 nM

Q: What about the “Panc-2H4 insulin suppression assay ("classical" target) Max Effect (%)” value ([2]; Table 4) of the same compound?
A: 40%

Q: And the EC50 [2, 7]?
A: 17 nM

Q: And the “Panc-2H4 insulin suppression assay ("classical" target) Max Effect (%)” value ([2]; Table 5)?
A: 40%

Q: And the EC50 ([2]; Table 5, library screening hits, read-out: Panc-2H4 insulin suppression assay ("classical" target) ED50)?
A: 17 nM

Q: Which “ED50 for inhibition of chemokine-induced THP-1 cell migration” value [4] does the source give for Cortistatin here?
A: ~75 nM

Q: And the ED50 ([4]; Table 2, inhibition of MCP-1 induced THP-1 cell migration)?
A: 75 nM

Q: And the Max effect ([4]; Table 2, maximum inhibition at the highest dose tested (1-10µM))?
A: 40-60%

Q: What about the “maximal inhibition of leukocyte migration” value ([4]; even at maximal / very high doses) of the same compound?
A: ~50%

Q: cortistatin (peptide) was tested. Which ED50 for inhibition of MCP-1 induced THP-1 cell migration [5] did it give?
A: 75 nM

Q: For “somatostatin-28 (from UniProt P61278 89-116) (peptide)”, which "Classical" : "BSCI" potency ratio, Human [5] is on record?
A: 6

Q: And the ED50 for inhibition of MCP-1 induced THP-1 cell migration [5]?
A: 0.9 nM

Q: And the Human Panc-2H4 insulin suppression assay, ED50 [5]?
A: 0.14 nM

Q: And the Human chemokine-induced THP-1 migration assay, ED50 [5]?
A: 0.9 nM
